Source: patent US11453683B1, “KRas G12D inhibitors” (Mirati Therapeutics, Inc., priority 2019, dated 2022)

What was measured:
KRas G12D [1] = target: T1, KRas G12D (Homo sapiens (Human), UniProt P01116, G12D); experiment: KRas G12D Binding Assay (TR-FRET displacement); details: TR-FRET displacement of Cy5 labelled tracer, GDP-loaded KRAS G12D, 60 minute incubation at 22° C.
Description: After a 60 minute incubation at 22° C., the reaction was measured using a PerkinElmer EnVision multimode plate reader via TR-FRET dual wavelength detection, and the percent of control (POC) calculated using a ratiometric emission factor. […] The POC values were fit to a 4-parameter logistic curve and the IC50 value was determined as the concentration where the curve crosses 50 POC.
Target sequence in this assay (P01116 other isoform, or with tags, fused parts or gaps G12D): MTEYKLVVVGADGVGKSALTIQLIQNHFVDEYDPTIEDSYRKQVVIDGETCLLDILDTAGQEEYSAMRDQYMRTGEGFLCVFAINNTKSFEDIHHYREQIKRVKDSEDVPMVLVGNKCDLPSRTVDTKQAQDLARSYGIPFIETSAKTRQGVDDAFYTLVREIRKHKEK

[2] = tested on: KRas G12D-mediated phosphorylation of ERK; experiment: Inhibition of KRas G12D-mediated phosphorylation of ERK in AGS cells; format: cell-based; details: Homo sapiens; AGS cells expressing G12D, 3 hours, phospho-ERK normalized to GAPDH
Procedure, shortened: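 In-cell Western: p-ERK Thr202/Tyr204 signal over GAPDH, as % of DMSO control, with IC50 from a 4-parameter curve. AGS cells seeded 40,000/well for 12-14 h, exposed to compound 3 h at 0.5% DMSO final, then formaldehyde-fixed and methanol-permeabilized.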

KRas G12D [3] = target: T1, KRas G12D; experiment: KRas G12D Surface Plasmon Resonance (SPR) Binding Assay; details: Biacore T200, immobilized biotinylated KRAS protein, 1:1 binding model
Description: Briefly, 1 L of 1.05× HBS-Mg buffer (262.5 mM Bioultra Hepes, pH 7.5, 157.5 mM NaCl, 105 mM MgCl2, 0.525 mM TCEP, 0.0305% Brij-35) was prepared and filter sterilized using a 0.22 μm bottle top filter. Approximately 50 mL of 1.05× HBS-Mg buffer was removed and saved for future dilutions. A 50 mL aliquot of DMSO (Sigma Aldrich DMSO Lot. #SHBK2079) was added and continued to stir for 10 minutes, creating the final 1.0× HBS-Mg buffer (250 mM Bioultra Hepes pH 7.5, 150 mM NaCl, 100 mM MgCl2, 0.5mM TCEP, 0.03% Brij-35).
Biacore T200 instrument was primed using 1.0× HBS-Mg buffer before docking a GE Streptavidin (SA) chip and then primed two additional times prior to beginning the immobilization step. All immobilized protein mixtures were created using 3-5mg/mL Biotinylated Avidin-tagged KRAS protein using the following immobilization settings: SA chip type, 1 flow cells per cycle, 720 second contact time, and 5 ul/min flow rate. Normalization of the detector was also performed during the immobilization step using the GE Biallormalize solution.
All compounds were diluted to 10 mM in 100% DMSO prior to being diluted 20× in 1.05× buffer. […] Data evaluation was performed using the Biacore T200 Evaluation software and data fit to 1:1 binding model.
Target sequence in this assay (P01116-2 other isoform, or with tags, fused parts or gaps G12D): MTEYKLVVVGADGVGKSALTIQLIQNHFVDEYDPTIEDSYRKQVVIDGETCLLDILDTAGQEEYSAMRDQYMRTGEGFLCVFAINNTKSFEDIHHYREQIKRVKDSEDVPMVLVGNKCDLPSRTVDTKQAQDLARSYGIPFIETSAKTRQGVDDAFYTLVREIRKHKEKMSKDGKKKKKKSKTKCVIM

Row | SMILES | IC50 (KRas G12D [1]) [µM] | IC50 [2] [µM] | Kd (KRas G12D [3]) [µM]
1 | Oc1cc(-c2ncc3c(N4C[C@H]5CC[C@@H](C4)N5)nc(OCCCN4C[C@@H]5C[C@H]4CO5)nc3c2F)c2ccccc2c1 [Example 24, 4-(2-(3-((1S,4S)-2-oxa-5-azabicyclo[2.2.1]heptan-5-yl)propoxy)-4-((1R,5S)-3,8-diazabicyclo[3.2.1]octan-3-yl)-8-fluoropyrido[4,3-d]pyrimidin-7-yl)naphthalen-2-ol] | 0.0079 | 2.89 | 0.005
2 | Cn1c(CCOc2nc(N3C[C@H]4CC[C@@H](C3)N4)c3cnc(-c4cc(O)cc5ccccc45)c(F)c3n2)nc2ccccc21 [Example 30, 4-(4-((1R,5S)-3,8-diazabicyclo[3.2.1]octan-3-yl)-8-fluoro-2-(2-(1-methyl-1H-benzo[d]imidazol-2-yl)ethoxy)pyrido[4,3-d]pyrimidin-7-yl)naphthalen-2-ol] | 0.418 | 9.6 | 0.18
3 | Fc1c(-c2cncc3cccc(Cl)c23)ncc2c(N3C[C@H]4CC[C@@H](C3)N4)nc(OCC34CCCN3CCC4)nc12 [Example 33, 4-((1R,5S)-3,8-diazabicyclo[3.2.1]octan-3-yl)-7-(5-chloroisoquinolin-4-yl)-8-fluoro-2-((tetrahydro-1H-pyrrolizin-7a(5H)-yl)methoxy)pyrido[4,3-d]pyrimidine bis(2,2,2-trifluoroacetate)] | 0.0211 | 2.05 | 0.0717
4 | O[C@@H]1C[C@@H]2CN(c3nc(OCC45CCCN4CCC5)nc4c(F)c(-c5cccc6cccc(Cl)c56)ncc34)C[C@H]1N2 [Example 49, (1R,5R,6R)-3-(7-(8-chloronaphthalen-1-yl)-8-fluoro-2-((tetrahydro-1H-pyrrolizin-7a(5H)-yl)methoxy)pyrido[4,3-d]pyrimidin-4-yl)-3,8-diazabicyclo[3.2.1]octan-6-ol] | 0.0059 | 2.12 | 0.0004
5 | [O-][N+]12CCCC1(COc1nc(N3CC4CCC(C3)N4)c3cnc(-c4cccc5cccc(Cl)c45)c(F)c3n1)CCC2 [Example 60, 7a-(((4-((1R,5S)-3,8-diazabicyclo[3.2.1]octan-3-yl)-7-(8-chloronaphthalen-1-yl)-8-fluoropyrido[4,3-d]pyrimidin-2-yl)oxy)methyl)hexahydropyrrolizine 4(1H)-oxide] | 1.66 | > 16.7 | > 1000
6 | Oc1cc(-c2ncc3c(N4C[C@H]5CC[C@@H](C4)N5)nc(OCCc4ccccc4F)nc3c2F)c2ccccc2c1 [Example 67, 4-(4-((1R,5S)-3,8-diazabicyclo[3.2.1]octan-3-yl)-8-fluoro-2-(2-fluorophenethoxy)pyrido[4,3-d]pyrimidin-7-yl)naphthalen-2-ol] | 1.25 |  | 1.15
7 | CN1CCC[C@H]1COc1nc(N2C[C@H]3CC[C@@H](C2)N3)c2cnc(-c3cccc4cccc(CCC#N)c34)c(F)c2n1 [Example 117, 3-(8-(4-((1R,5S)-3,8-diazabicyclo[3.2.1]octan-3-yl)-8-fluoro-2-(((S)-1-methylpyrrolidin-2-yl)methoxy)pyrido[4,3-d]pyrimidin-7-yl)naphthalen-1-yl)propanenitrile bis(2,2,2-trifluoroacetate)] | 0.731 |  | 1
8 | CC(C)N1CCC[C@H]1COc1nc(N2C[C@H]3C[C@@H](O)[C@@H](C2)N3)c2cnc(-c3cccc4cccc(Cl)c34)c(F)c2n1 [Example 153, (1R,5R,6R)-3-(7-(8-chloronaphthalen-1-yl)-8-fluoro-2-(((S)-1-isopropylpyrrolidin-2-yl)methoxy)pyrido[4,3-d]pyrimidin-4-yl)-3,8-diazabicyclo[3.2.1]octan-6-ol] | 0.0508 | 2.37 | 0.0705
9 | COC(=O)C12CCC(CN(c3nc(OC[C@@H]4CCCN4C)nc4c(F)c(-c5cc(O)cc6ccccc56)ncc34)C1)N2 (stereo partly drawn) [Example 158, methyl 3-(8-fluoro-7-(3-hydroxynaphthalen-1-yl)-2-(((S)-1-methylpyrrolidin-2-yl)methoxy)pyrido[4,3-d]pyrimidin-4-yl)-3,8-diazabicyclo[3.2.1]octane-1-carboxylate bis(2,2,2-trifluoroacetate)] | 0.0737 | 4.22 | 0.33
